pIC50, pKi: −log10 of the molar value. ≈ marks a conversion by molar mass, not a printed value. Where “and” joins values, the source holds several entries; their conditions need not be identical. Equal entries are not always repeated. Entries after “also recorded” stand apart in the source; their conditions may differ. Structures can show the parent of a compound that is named as a salt. Where two headings read alike, the source gives them in different places.

The test system of one data set is Caco-2 cells. Also on record: method as in PMID 22146584. The note with it: cited from earlier work.
The test system of the next data set is A. hydrophila. Description: Antimicrobial susceptibility test, MIC by microdilution. Type of data set: cell-based, Aeromonas hydrophila. The settings on record: for MIC: Aeromonas hydrophila, read-out: MIC against A.hydrophila; for growth inhibition of A. hydrophila, in words: screen for antimicrobial activity. As for the experimental part: (§1) A. hydrophila was cultured for 18 h, washed with PBS (pH 7.2), and adjusted to an OD600 value of 0.5. Next, the culture was diluted tenfold five times, and aliquots were spread on LB agar in triplicate to determine the number of colony-forming units (CFU)/ml.
(§2) The minimum inhibitory concentration (MIC) of the chemical compounds against A. hydrophila was determined using the microdilution method in accordance with the guidelines of the Clinical and Laboratory Standards Institute, document M31-A3 [16], following the method described by Dal Pozzo et al.. Compounds were diluted in DMSO at concentrations of 80, 40, 20, or 10 μg/ml. Appropriate controls were included in all tests. DCS is a naturally occurring antibacterial compound that targets alanine racemase involved in peptidoglycan synthesis. DCS was used as a positive control ([…]), DMSO solvent was used as a negative control for growth inhibition and DMSO alone was used as the blank control. All tests were performed in triplicate. The inoculum was prepared in LB culture medium (1 × 10^8 CFU/ml; OD600 = 0.3) and cultured at 30 °C/20 h. The inoculum (100 μl; 1 × 10^5 CFU) was added to each well containing compounds. The microplates were incubated at 30 °C for 20 h.
In general terms: Broth dilution looks for growth in wells or tubes with falling amounts of substance.

The subject of data set [1] is D-amino acid oxidase (DAAO) and horseradish peroxidase (HRP). The experiment in a line: Assay interference counter screen (second step of the assay). Type of data set: biochemical. The note with it: for inhibition of second-step enzymes / assay interference, in words: HRP and DAAO, within a concentration of 50 μM; for pIC50: DAAO/HRP reaction, 10 μM D-ala as substrate, read-out: IC50 on the enzymes in the second step (counter screen). As for the experimental part:
To eliminate the inhibitory effects of the compounds on DAAO and HRP, a counter screening assay was performed as described above. The first-step assay mixtures without alanine racemase and L-alanine were added to each test well, followed by the addition of a twofold dilution series (in DMSO) of the inhibitors to the sample test wells, and finally, the addition of DMSO to the blank control wells. Then, DMSO was added to each well to obtain reaction mixtures at a final volume of 100 μl.
Second, the D-amino acid oxidase reaction mixture was prepared using 10 μM D-ala as the substrate. The control and control blank for the enzyme assay was prepared with or without 10 μM D-ala and absorbance was measured at 550 nm.

Data set [2] concerns the target T1, alanine racemase Alr-2 (Aeromonas hydrophila, UniProt A0KL98). Description: biochemical. The protocol:
Alanine racemase activity was measured at room temperature in the L → D direction using a spectrophotometric assay. The assay was modified by varying the volume to 100 μl and dividing it into two steps (Fig. 1).
The first step (F1) is the production of the D-form amino acids. The optimized enzyme assay reaction mixture consisted of 10 μM PLP, 12.5 mM of NaHCO3-NaOH buffer (pH 11), and 50 mM L-alanine and alanine racemase. A total of 100 μl of this reaction mixture was added to the wells of a 96-well plate. After incubation at 35 °C for 10 min, the reaction was terminated by adding 12.5 μl of 2 M HCl, and the incubation was continued for 2 min on ice. The reaction mixture was centrifuged at 10,000 RPM, for 10 min at 4 °C, and 10 μl of 2 M NaOH was added to neutralize the reaction mixture. The second step (F2) is the conversion of D-alanine to α-keto acids using D-amino acid oxidase (DAAO). The formation of H2O2 from this reaction can be quantified using horseradish peroxidase (HRP) at 550 nm. The DAAO reaction mixture contained 200 mM of Tris-HCl (pH 8.0), 0.1 mg/ml 4-aminoantipyrine (AAP), 0.1 mg/ml N-ethyl-N-(2-hydroxy-3-sulfopropyl)-m-toluidine sodium salt (TOOS), 2 units of HRP, 0.1 unit of DAAO and D-form amino acid solution in a final volume of 100 μl. The negative control for the enzyme assay was prepared using the same procedure but without enzyme. After incubating at 37 °C for 30 min, the absorbance was measured at 550 nm using a Spectra MAX 190 microplate reader (Molecular Devices Corp., USA). One unit (U) of enzyme was defined as the amount of purified enzyme that catalyzed the formation of 1 μmol of D-alanine from L-alanine per minute.
Each well (sample, control, and their blanks) contained the screening assay reaction mixture of 10 μM PLP and 12.5 mM NaHCO3-NaOH buffer (pH 11). Next, 4 μl of test substance (small molecular compounds or natural product extracts) was added to the sample and sample blank test tubes. Finally, […] alanine racemase was added to the sample and control test tubes while the same volume of DMSO was added to the sample blank and control blank test tubes. After incubation at 4 °C for 30 min, 50 mM L-alanine was added to the sample and control test wells while DMSO was added to the sample blank and control blank test wells to obtain a final volume of 100 μl. The control and control blank were defined as 100% and 0% of enzyme activity. The reaction was then carried out as described for the alanine racemase assay. The assay is divided into two steps: absorbance was measured at 550 nm at the end of the first (F1), and second (F2) steps and ΔF was defined as F2-F1. Inhibition activity was calculated from the following equation.
Fourfold dilution series (in DMSO) were prepared for all the compounds, and the solutions were added to the wells of a 96-well plate to yield the final inhibitory concentrations. Each concentration was tested in triplicate. The substrate was added after incubation for 30 min, and the fluorescence intensity was measured after the reaction. The positive control (D-cycloserine, DCS) was diluted in DMSO, and the negative control was prepared without adding an inhibitor to the control wells of each plate. Percentage inhibition at each inhibitor concentration was calculated with respect to the negative control. The results were analyzed using the SPSS 16.0 IBM modeler to calculate the compound concentration that causes 50% inhibition (IC50).

The next data set concerns A. hydrophila Δalr-2. Type of data set: cell-based, Aeromonas hydrophila. The note with it: for MIC against A.hydrophila Δalr-2: average values with standard deviations in parentheses, NC: non calculable as the values are too high. As for the experimental part: A. hydrophila HBNUAh01 isolated from infected Paralichthys olivaceus and an A. hydrophila alr-2 knockout mutant were used in this study. Escherichia coli BL-21(DE3) cells were used for protein expression. The pET-25b-alr2 plasmid was used for protein expression. The A. hydrophila and E. coli strains were cultured in Luria-Bertani (LB) medium at 30 °C and 37 °C, respectively. For plasmid selection, 0.5 mmol/l ampicillin (AMP, Sigma–Aldrich Inc., USA) was added to the LB medium for experiments with E. coli.
as §1, §2

Data set [3] deals with T1, alanine racemase Alr-2. Description: Kinetics of alanine racemase inhibition (Lineweaver-Burk). Type of data set: biochemical. The note with it: for pKi: Lineweaver-Burk analysis, read-out: inhibition constant Ki; for type (mode) of inhibition: Lineweaver-Burk profile. As for the experimental part:
The mode of inhibition of the enzyme by the compounds was determined as follows. The experiment was composed of three sets of reactions in which each set consisted of four concentrations of substrate in the presence of fixed amounts of alanine racemase, and three different concentrations of inhibitors were used. For homogentisic acid and hydroquinone, 0, 0.02 and 0.04 mg/ml were used. The reactions were made as described. The amount of product was determined spectrophotometrically and subsequently the standard curve was used to obtain reaction velocities. A double reciprocal plot (1/V versus 1/[S]), where V is reaction velocity and [S] is substrate concentration, was plotted. The type (mode) of inhibition of enzyme activity by the compounds was determined by analysis of the double reciprocal (Lineweaver-Burk) plot using Michaelis-Menten kinetics. The inhibition constant (K i) of the inhibitors was determined.

Another data set concerns HeLa cells. Format: cell-based. The note with it: for cytotoxicity, in words: MTT assay, HeLa / mammalian cells; for TC50, cytotoxicity in HeLa cells: MTT, 48 h exposure, average values with standard deviations, NC: non calculable as the values are too high. The protocol: This assay was performed in a 96-well plate format and used HeLa cells. The cell viability was determined using 3-(4,5-dimethyl-2-thiazole)-2,5-diphenyl-2H-tetrazolium bromide (MTT, Sigma-Aldrich). Cells were seeded in culture medium in microplates (4000 cells/well) and incubated at 37 °C for 24 h before drug treatments. […] The cells were exposed to the compounds for 48 h. At the end of the incubation, the cells were exposed to MTT (0.5 mg/ml) at 37 °C for 4 h. The reduced crystals were dissolved in DMSO, and absorbance was detected at 490 nm. The […] were set as zero absorbance. The percentage of cell survival was calculated using the background-corrected absorbance as follows: Cell survival (%) = (ODexperiment/ODcontrol) × 100. The data represent the mean and standard deviation from triplicate determination.

[4] abbreviates: average values with standard deviations in parentheses, NC: non calculable as the values are too high.
The mark [5] stands for this setting: average values with standard deviations in parentheses, read-out: IC50 against Alr-2 with PLP.

T1 sequence (A0KL98 entry or part of it): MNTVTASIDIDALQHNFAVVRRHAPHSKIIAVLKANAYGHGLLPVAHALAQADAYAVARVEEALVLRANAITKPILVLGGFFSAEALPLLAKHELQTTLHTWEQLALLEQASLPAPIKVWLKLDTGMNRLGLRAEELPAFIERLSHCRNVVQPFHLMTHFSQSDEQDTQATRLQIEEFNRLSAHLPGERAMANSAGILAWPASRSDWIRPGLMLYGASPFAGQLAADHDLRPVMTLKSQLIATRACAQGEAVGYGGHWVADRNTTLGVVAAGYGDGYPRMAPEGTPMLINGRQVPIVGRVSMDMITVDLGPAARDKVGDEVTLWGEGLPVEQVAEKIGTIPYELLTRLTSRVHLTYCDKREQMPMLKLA

As for `O=C1C=C2C(=CCOC2O)O1` (centres unmarked) [Compound I-2, Patulin], the “IC50 against Caco-2 cells” value in the data set on Caco-2 cells was 0.62 µg/mL (≈ 4.02 µM). Also, the MIC (as a rule, the lowest concentration found to suppress growth) in the data set on A. hydrophila came to 20 µg/mL (≈ 130 µM). Also, in the data set on A. hydrophila, the “growth inhibition of A. hydrophila, in words” value (“growth inhibition” below) is recorded as “inhibit the growth of A. hydrophila significantly”. The entries for the “inhibition of second-step enzymes / assay interference, in words” value in data set [1] and in data set [1] (listed as patulin) were “weak inhibition” and “No assay interference”, respectively. Further, the negative logarithm of the IC50 (pIC50) (usually the negative decadic logarithm of the IC50, by convention in mol/L) against alanine racemase Alr-2 [2] is 4.83. In the data set with A. hydrophila Δalr-2, the “MIC against A.hydrophila Δalr-2” value is recorded as 80(3.96) μg/ml.
Consider `O=C(O)Cc1cc(O)ccc1O` [Compound I-3, Homogentisic acid], for which, at alanine racemase Alr-2 [3], the pKi – broadly, the Ki on a negative log10 scale, so that one unit is a factor of ten – was 4.29 and the “type (mode) of inhibition” value is on record as “competitive type of inhibition”. Also, in the data set on HeLa cells, the “cytotoxicity, in words” value is “minimal cytotoxicity”; the “TC50, cytotoxicity in HeLa cells” value is 157.7 μg/ml and 157.7(6.1) μg/ml. For the same compound, the MIC in the data set with A. hydrophila (setting [4]) was 120 µg/mL (≈ 714 µM). Moreover, in the data set with A. hydrophila, the “growth inhibition” value is on record as “inhibit the growth of A. hydrophila significantly”. Moreover, in data set [1], the pIC50 is 4.02 and the “inhibition of second-step enzymes / assay interference, in words” value is recorded as “No assay interference”. This compound also gave a pIC50 at alanine racemase Alr-2 [2] of 4.90. In addition, the “antimicrobial activity against A. hydrophila Δalr-2, in words” value with A. hydrophila Δalr-2 is given as “no antimicrobial activity”.
On to `CCCCC1(C)C=CC(=C2C(=O)OC(=CC(=O)O)C2=O)O1` (centres unmarked) [Compound I-4, Acetic acid,[4-(5-butyl-5-methyl-2(5H)-furanylidene)dihydro −3,5-dioxo-2(3H)-furanylidene]-(9CI)], for which the pIC50 on alanine racemase Alr-2 [2] (setting [5]) is 5.05.
The same measure, in the same setting: as for `CCCOC(=O)c1cc(O)c(O)c(O)c1` [Compound I-5, Propyl Gallate], the figure is 5.07.
`Oc1ccc(O)cc1` [Compound I-6, Hydroquinone]: at alanine racemase Alr-2 [3], the pKi was 3.67 and the “type (mode) of inhibition” value is on record as “noncompetitive inhibitor; also recorded: noncompetitive type of inhibition”. Besides, in the data set on HeLa cells, the “cytotoxicity, in words” value is “minimal cytotoxicity”; the “TC50, cytotoxicity in HeLa cells” value was 122.9 μg/ml and 122.9(8.9) μg/ml. Also, in the data set on A. hydrophila (setting [4]), the MIC was 80 µg/mL (≈ 727 µM). Moreover, the “growth inhibition” value in the data set with A. hydrophila was “inhibit the growth of A. hydrophila significantly”. Also, in data set [1], the pIC50 was 3.95 and the “inhibition of second-step enzymes / assay interference, in words” value was “No assay interference”. On alanine racemase Alr-2 [2], this compound showed a pIC50 of 4.73. Moreover, the “MIC against A.hydrophila Δalr-2” value in the data set with A. hydrophila Δalr-2 is recorded as 140(2.4) μg/ml.
`O=C(O)CCc1ccccc1Nc1c2ccccc2nc2ccccc12` [Compound I-7, Benzenepropanoic acid,2-(9-acridinylamino)-monohydrochloride]: the pIC50 on alanine racemase Alr-2 [2] (setting [5]) was 4.75.
The same measure, in the same setting: with `Oc1cc2c(cc1O)C1c3ccc(O)c(O)c3OCC1(O)C2` (centres unmarked) [Compound I-8, Haematoxylin] the figure was 4.81.
On alanine racemase Alr-2 [2], `Oc1ccc(CC2NCCc3cc(O)c(O)cc32)cc1` (centres unmarked) [Compound I-9, Higenamine] showed a pIC50 of 4.84.
Still for that read-out and setting: with `O=c1c(O)c(-c2ccc(O)c(O)c2)oc2cc(O)cc(O)c12` [Compound I-10, Quercetin] the figure was 4.81.
For `N[C@@H]1CON=C1O` [DCS, D-cycloserine, reference compound], in the data set on HeLa cells, the “TC50, cytotoxicity in HeLa cells” value is 149.6 μg/ml and 149.6(5.9) μg/ml. Besides, the MIC with A. hydrophila (setting [4]) was 25 µg/mL (≈ 245 µM). The pIC50 at alanine racemase Alr-2 [2] (setting [5]) is 5.27. Also, the “MIC against A.hydrophila Δalr-2” value in the data set on A. hydrophila Δalr-2 is reported as 50(2.9) μg/ml.
Turning to Anabellamide [Compound I-1], the pIC50 on alanine racemase Alr-2 [2] (setting [5]) was 5.18.

(Values after PMC5445283, “Selection and characterization of alanine racemase inhibitors against Aeromonas hydrophila” (BMC Microbiology, 2017).)
